In US20240115577A1, “SMALL MOLECULE REGULATORS OF ALVEOLAR TYPE 2 CELL PROLIFERATION FOR THE TREATMENT OF PULMONARY DISEASES” (THE SCRIPPS RESEARCH INSTITUTE, priority 2021, published 2024):
“Also recorded” adds a separate entry of the source. Like-named read-outs stand apart in the source and are kept apart here.

Tests used:
[1] = IT pharmacokinetics of dutogliptin (1) and dutogliptin boronate (15); format: in vivo, mouse; conditions: mouse, in vivo
Method: Like other […]. Dutogliptin (1) dosed IT in mice with PBS solution quickly cleared in lung (<24h. Table 8A). […] The parent drug dutogliptin was detected in plasma and lung. […] The drug was retained in the lung for over 48 h. The data clearly illustrated the unexpected lung retention ability of boronate prodrug 15.

HbA1c = conditions: once-a-day oral doses of 200 mg and 400 mg; cited from earlier work
Primary human AEC2s = assay: AEC2 proliferation assay (Ki67 high content imaging); format: cell-based; conditions: for EC50: Homo sapiens
Method: To identify small molecules capable of proliferating AEC2s, as disclosed herein, we first established a culture system with primary human small airway epithelial cells (SAECs) from a commercial source.
AEC2 proliferation assay. Primary human AEC2s were plated at a density of 1,500 cells per well in black 384-well plates (Greiner) coated with 10 ug/mL. Laminin (Life Technologies) in 50 μL of Small Airway Epithelial Cell Growth Medium (Lonza) without EGF, retinoic acid and with 5% BPE. 100 nL of compound dissolved in DMSO was then delivered using a Biomek FX instrument (Beckman Coulter) fitted with a pintool head (V&P Scientific).

[2] = tested on: acute lung injury induced by LPS; assay: LPS-induced acute lung injury (ALI) model; format: in vivo, mouse; conditions: for minimal efficacious dose in LPS lung injury model / Efficacy in LPS acute lung injury model, result in words: oral; for Efficacy in LPS acute lung injury model, result in words: histological scoring, BALF protein
Method: Experimental methods of Acute Lung Injury (ALI) model
LPS from E. coli […] (Sigma) was used to induce acute lung injury in mice. Body weight matched (19 gram˜22 gram) female C57BL/6J mice at 9-11 weeks of age were selected to use in ALI model.
Vehicle control or DPP4 inhibitors were dosed at 10 ml/kg through oral gavage once or twice a day selected based on PK profile. […] Vehicle control or DPP4 inhibitors were dosed at 2 ml/kg through a 22 g flexible catheter every other day.
DPP4 inhibitors or vehicle control were given to mice starting from one day before LPS injection (day −1).
All animals were sacrificed at day 3.5 after LPS injection. Bronchoalveolar lavage fluid (BALF) was retrieved using standard method. 1 ml 4% formalin was used to inflate the lung, which was subsequently fixed in 4% formalin for 24 hours and preserved in 70% EtOH until histological process.
For readouts, total protein content in BALF was quantified using BCA assay: pulmonary inflammation and damage were assessed using H&E staining.

[3] = tested on: bleomycin-induced lung fibrosis; assay: Bleomycin-induced lung fibrosis model; format: in vivo, mouse; conditions: for Dose required in mouse bleomycin / Dose required in mouse bleomycin, multiple of HED: Table 6; for Efficacy in bleomycin-induced lung fibrosis, result in words: oral, high doses
Method: Experimental Methods of Bleomycin Model Bleomycin (Hospira) was used to induce lung fibrosis in mice. Body weight matched (24 gram˜28 gram) male C57BL/6J mice at 10-12 weeks of age were selected to use in bleomycin model. For orally delivered DPP4 inhibitors. compounds were dissolved in PBS resulting in clear solution. […] For intratracheally delivered DPP4 inhibitors, compounds were dissolved in PBS resulting in clear solution. […] 0.5 U/kg Bleomycin or PBS in sham group was intratracheally injection into mice lung at day 0. […] All animals were sacrificed at day 20 after bleomycin injection. Bronchoalveolar lavage fluid (BALF) was retrieved using standard method. 1 ml 4% formalin was used to inflate the lung, which was subsequently fixed in 4% formalin for 24 hours and preserved in 70% EtOH until histological process. For readouts, body weight was measured every day; total protein content in BALF was quantified using BCA assay; pulmonary fibrosis was assessed using Masson's trichrome staining.

[4] = Pharmacokinetic profiling of four gliptins (oral, IT or OP); format: in vivo, mouse; conditions: for fraction of oral dose required by pulmonary (IT or OP) delivery for similar lung exposure: oral 100 mg/kg versus IT/OP 20 mg/kg
Method: B. Pharmacokinetic profiling. […] Thus, four of the five […] currently approved by the U.S. FDA were each administered to mice orally (100 mg/kg) or through intratracheal (IT) or oropharyngeal (OP) routes (20 mg/kg).

oral glucose tolerance = conditions: rodent models of diabetes; cited from earlier work
phospholipidosis = assay: Phospholipidosis assay in vitro; conditions: FIG. 7A; listed as Linagliptin
[5] = in vivo; cited from earlier work
[6] = 4.4 mg/kg, Lung concentration of dutogliptin, Mean
[7] = 4.4 mg/kg, Lung concentration of dutogliptin, individual animals
[8] = Table 4, promotion of AEC2 proliferation, read-out: AEC2 EC50
[9] = Table 5, read-out: AEC2 proliferation

Compound	EC50 (Primary human AEC2s; [8]) [nM]	EC50 (Primary human AEC2s; [9]) [nM]	Dose required in mouse ALI ([2]; Table 6)	minimal efficacious dose in LPS lung injury model [2] [mg/kg]	Dose required in mouse bleomycin [3]	Dose required in mouse bleomycin, multiple of HED [3]	Efficacy in bleomycin-induced lung fibrosis, result in words [3]	fraction of oral dose required by pulmonary (IT or OP) delivery for similar lung exposure [4]	dose with efficacy in OGTT model (oral glucose tolerance) [mg/kg]	AEC2 proliferation, result in words (Primary human AEC2s)	Dose required in mouse ALI, multiple of HED ([2]; Table 6)	Efficacy in LPS acute lung injury model, result in words ([2]; high doses)	also measured
O=C(CN[C@@H]1CCNC1)N1CCC[C@H]1B(O)O [Cpd 1, ((R)-1-(((R)-pyrrolidin-3-yl)glycyl)pyrrolidin-2-yl)boronic acid]	280	280											time to clearance from lung [1]: < 24 h; concentration at 3 h ([1]; 4.4 mg/kg, Bronchoalveolar lavage fluids concentration of dutogliptin, Mean): 309 ng/mL; concentration at 3 h ([1]; 4.4 mg/kg, Bronchoalveolar lavage fluids concentration of dutogliptin, individual animals): 400 ng/mL; concentration at 3 h [1, 6]: 6550 ng/g; concentration at 7 h [1, 6]: 4560 ng/g; concentration at 3 h [1, 7]: 6800 ng/g; concentration at 7 h [1, 7]: 3800 ng/g; concentration at 24 h [1, 7]: 3720 ng/g; HbA1c versus placebo (HbA1c): statistically reduced
N#C[C@@H]1C[C@@H]2C[C@@H]2N1C(=O)[C@@H](N)C12CC3C[C@@H](C1)C[C@@](O)(C3)C2 [Cpd 4, (1S,3S,5S)-2-((2S)-2-amino-2-((1S,3R,5S)-3-hydroxyadamantan-1-yl)acetyl)-2-azabicyclo[3.1.0]hexane-3-carbonitrile]	650	650	50 mg/kg BID (10-	50	50 mg/kg BID	(10-20x HED)	efficacious	one-fifth	0.5 to 5	promote AEC2 proliferation to the same magnitude as NVP-728			Efficacy in LPS acute lung injury model, result in words ([2]; high doses, listed as Saxagliptin): efficacious; also recorded: promote repair; also recorded: dramatic improvements
CC#CCn1c(N2CCC[C@@H](N)C2)nc2c1c(=O)n(Cc1nc(C)c3ccccc3n1)c(=O)n2C [Cpd 5, (R)-8-(3-aminopiperidin-1-yl)-7-(but-2-yn-1-yl)-3-methyl-1-((4-methylquinazolin-2-yl)methyl)-3,7-dihydro-1H-purine-2,6-dione]			1 mg/kg QD		>10 mg/kg qD	(>20x HED)	efficacious	one-fifth			model (2x HED)	efficacious	doses with antagonistic activity, repeat dosing ([2]; FIG. 7B): ≥ 2 mg/kg; efficacious dose, repeat dosing ([2]; FIG. 7B): 1 mg/kg; dose toxic in mouse ALI model ([2]; Table 6): 2 mg/kg; phospholipidosis induction (phospholipidosis): significant phospholipidosis at low concentrations; also recorded: induces phospholipidosis; lung exposure over the evaluated time frame ([4]; versus other gliptins): considerably higher lung exposure
Cc1cc(N2CCN([C@@H]3CN[C@H](C(=O)N4CCSC4)C3)CC2)n(-c2ccccc2)n1 [Cpd 8, ((2S,4S)-4-(4-(3-methyl-1-phenyl-1H-pyrazol-5-yl)piperazin-1-yl)pyrrolidin-2-yl)(thiazolidin-3-yl)methanone]													Adverse Events [5]: 160 mg/day cardiac safety
N[C@@H](CC(=O)N1CCn2c(nnc2C(F)(F)F)C1)Cc1cc(F)c(F)cc1F [Sitagliptin]		560	100 mg/kg BID	100	100 mg/kg mg/kg BID		efficacious; also recorded: ameliorative efficacy; also recorded: robust protection	one-fifth	3 to 30	promote AEC2 proliferation to the same magnitude as NVP-728	(10-20x HED)	efficacious; also recorded: promote repair; also recorded: dramatic improvements	proliferative AEC2s (KI-67 SFPTC double positive cells) ([2]; LPS model): substantial increase; total number of cells (all nuclei) or Ki-67 positive cells in the lung ([2]; LPS model): does not significantly increase; cytokine or BALF levels at early timepoints ([2]; high doses, time course): do not affect; protection in bleomycin model, co-treatment with Nintedanib (Ofev) ([3]; Bliss independence calculations): synergistic protection
